The numbers were not newly measured in patent US20090069433A1 (priority 2007, published 2009), which cites them from elsewhere.

The conditions of the data set: pure capsaicinoid; background statement.

With `COc1cc(CNC(=O)CCCC/C=C/C(C)C)ccc1O` [Capsaicin], the “pungency (Scoville scale)” value was 15,000,000-16,000,000 Scoville units.
